Laboratory results taken from doi:10.1101/2024.12.18.629081v1 (biorxiv, 2024).

Legend:
FGFR3 = FGFR3 (Homo sapiens, UniProt P22607); assay: SPR; type: binding
GCK = molecular target: T1, GCK (Homo sapiens, UniProt P35557); assay: G6PDH-coupled activation assay, A340; type: biochemical
T1 sequence (P35557 1-465): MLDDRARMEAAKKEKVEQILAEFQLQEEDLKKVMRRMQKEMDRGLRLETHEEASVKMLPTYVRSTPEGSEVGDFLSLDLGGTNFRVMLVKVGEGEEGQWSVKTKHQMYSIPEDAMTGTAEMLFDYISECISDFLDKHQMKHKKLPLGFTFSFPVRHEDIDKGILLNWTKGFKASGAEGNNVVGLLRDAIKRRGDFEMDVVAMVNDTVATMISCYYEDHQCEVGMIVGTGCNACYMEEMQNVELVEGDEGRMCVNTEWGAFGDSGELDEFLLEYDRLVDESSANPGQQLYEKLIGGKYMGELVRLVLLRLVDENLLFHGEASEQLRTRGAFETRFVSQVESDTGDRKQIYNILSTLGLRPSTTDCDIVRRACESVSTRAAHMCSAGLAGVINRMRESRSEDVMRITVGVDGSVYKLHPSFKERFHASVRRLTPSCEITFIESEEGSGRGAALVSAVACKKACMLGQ

Chain of FGFR3 (P22607 449-759): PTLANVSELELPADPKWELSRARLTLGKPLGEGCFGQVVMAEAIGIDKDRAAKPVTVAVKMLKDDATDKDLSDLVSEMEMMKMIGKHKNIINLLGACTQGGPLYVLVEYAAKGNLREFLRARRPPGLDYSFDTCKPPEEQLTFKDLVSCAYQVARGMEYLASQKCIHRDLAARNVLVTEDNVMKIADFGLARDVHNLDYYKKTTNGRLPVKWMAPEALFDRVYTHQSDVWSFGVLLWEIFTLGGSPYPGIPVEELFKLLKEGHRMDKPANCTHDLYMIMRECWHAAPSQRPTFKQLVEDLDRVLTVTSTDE

Row | Kd (FGFR3) [µM] | EC50 (GCK) [µM] | SMILES
1 | 599 | – | Nc1nc2c(s1)[C@H](c1ccc(F)cc1)CC(=O)N2 [F4]
2 | 61.4 | – | Nc1nc2c(s1)[C@H](c1ccccc1OCc1ccc(Cl)cc1)CC(=O)N2 [F42]
3 | – | 1.81 ± 0.28 | CNc1ccc(Sc2nnc[nH]2)nc1C(=O)Nc1nccs1 [G0]
4 | – | 0.15 | Cc1cccc(Nc2ccc(Sc3nnc[nH]3)nc2C(=O)Nc2nccs2)c1 [G11]
